According to patent US11766044B2, “Method for controlling PPO resistant weeds” (BASF SE, priority 2016, dated 2023):
Read-outs that look alike come from different tables or passages of the source.

Experiments:
[1] = test system: sensitive (w.10) and resistant weeds (w.11, w.12); assay: Third greenhouse experiment, summary in words; assay type: in vivo, Amaranthus tamariscinus; conditions: table 4, 2 and 4 g/ha
[2] = test system: sensitive (w.1, w.4) and resistant weeds (w.2, w.3, w.5, w.6); assay: First greenhouse experiment, summary in words; assay type: in vivo, Amaranthus tamariscinus, Ambrosia elatior; conditions: table 2, 1 and 2 g/ha
[3] = test system: Amaranthus tuberculatus (AMATU, tall waterhemp), Sensitive (w.7); assay: Greenhouse herbicidal activity test, another (second) experiment, weed w.7; assay type: in vivo; conditions: scale 0 to 100
[4] = test system: Amaranthus tamariscinus (AMATA, common waterhemp), PPO resistant biotype 1 (w.2); assay type: in vivo; conditions: scale 0 to 100
[5] = test system: Ambrosia elatior (AMBEL, common ragweed), Sensitive (w.4); assay type: in vivo; conditions: scale 0 to 100
[6] = test system: Amaranthus tamariscinus (AMATA, common waterhemp), Sensitive (w.1); assay type: in vivo
[7] = test system: Amaranthus tamariscinus (AMATA, common waterhemp), PPO resistant biotype 2 (w.3); assay type: in vivo; conditions: scale 0 to 100

**Q.** How did the “control of resistant in comparison to sensitive biotypes” value [1] turn out when `C#CCOc1cc(-n2nc3n(c2=O)CCCC3)c(Cl)cc1Cl` [azafenidin, reference compound] was run?
**A.** much weaker control

**Q.** `CCOC(=O)COc1ncccc1Oc1cc(-n2c(=O)cc(C(F)(F)F)n(C)c2=O)c(F)cc1Cl` [compound (I).1] was tested. Which “activity on both sensitive and resistant weeds” value ([2]; sensitive w.1, w.4, resistant w.2, w.3, w.5, w.6) did it give?
**A.** very good activity

**Q.** What about the “Weed control (%) 7” value ([3]; use rate 1 g/ha) of the same compound?
**A.** 100%

**Q.** What about the “Weed control (%) 7” value ([3]; use rate 2 g/ha) of the same compound?
**A.** 100%

**Q.** And the “Weed control (%) w.2” value ([4]; use rate 1 g/ha)?
**A.** 100%

**Q.** What about the “Weed control (%) w.2” value ([4]; use rate 2 g/ha) of the same compound?
**A.** 100%

**Q.** What about the “Weed control (%) w.4” value ([5]; use rate 1 g/ha) of the same compound?
**A.** 100%

**Q.** And the “Weed control (%) w.4” value ([5]; use rate 2 g/ha)?
**A.** 100%

**Q.** What about the “Weed control (%) w.1” value ([6]; use rate 1 g/ha, scale 0 to 100) of the same compound?
**A.** 100%

**Q.** And the “Weed control (%) w.1” value ([6]; use rate 2 g/ha, scale 0 to 100, 100 = complete destruction)?
**A.** 100%

**Q.** And the “Weed control (%) w.3” value ([7]; use rate 1 g/ha)?
**A.** 100%

**Q.** And the “Weed control (%) w.3” value ([7]; use rate 2 g/ha)?
**A.** 100%

**Q.** With `CCOC(=O)COc1ccccc1Oc1cc(-n2c(=O)cc(C(F)(F)F)n(C)c2=O)c(F)cc1Cl` [compound (I).4] as the compound, how does the “activity on both sensitive and resistant weeds” value ([1]; sensitive w.10, resistant w.11, w.12) read?
**A.** very good activity

**Q.** `C#CCN1C(=O)COc2cc(F)c(N3C(=O)C4=C(CCCC4)C3=O)cc21` [flumioxazin, reference compound] was tested. Which “control of resistant in comparison to sensitive biotypes” value [2] did it give?
**A.** much weaker control
